Patent US20240009218A1, “COMPOSITIONS AND METHODS USING A COMBINATION OF OLEUROPEIN AND QUERCETIN FOR USE IN CARTILAGE DEGENERATION” (SOCIETE DES PRODUITS NESTLE S.A., priority 2020, published 2024)

Tests used:
Assay type in all cases: cell-based
SW1353 cells [1] = assay: Chondrocyte function by western blot (collagen-IIα1, MMP3, MMP13) in SW1353 cells; conditions: SW1353 cells treated with IL-1β 24 h or 48 h vs control
Description: To validate the effect of the pro-inflammatory cytokine Interleukin-1β as an osteoarthritis-mimetic in a chondrocyte cellular model and to test the effect of the mitochondrial calcium uniporter (MCU) ablation on chondrocyte function, the inventors measured chondrocyte function and mitochondrial function in SW1353 cells. SW1353 cells were purchased from ATCC. SW1353 cells were seeded in 96-well plates at a density of 10 000 cells per well […] (for mitochondrial calcium measurement) or at a density of 1 000 000 cells (for western blots). Cells were cultured in […] (DMEM, Gibco), high glucose, with 10% fetal calf serum and 1% Penicillin-Streptomycin.
To assess chondrocyte function, the expression of collagen-IIα1, aggrecan, metalloproteinase-3 and -13 (MMP3 and MMP13), were analyzed by western blotting. SW1353 cells were treated or not with 10 ng/ml Interleukin-1b for 24 h or 48 h. Protein extracts were prepared in an appropriate buffer containing 150 mM NaCl, 1.0% IGEPAL CA-630, 0.5% sodium deoxycholate, 0.1% SDS, 50 mM Tris, pH 8.0, Complete EDTA-free protease inhibitor mixture (Roche), 1 mM PMSF, 1 mM NaVO3, 5 mM NaF and 3 mM β-glycerophosphate and phosphatase inhibitors (Roche). 40 μg of total proteins were loaded, according to BCA quantification. Proteins were separated by SDS-PAGE electrophoresis, in commercial 4-12% acrylamide gels (Thermo Fisher Scientific) and transferred onto PVDF membranes (Thermo Fisher Scientific) by wet electrophoretic transfer. Blots were blocked 1 hour at RT with 5% bovine serum albumin (Sigma-Aldrich) in TBS-tween (0.5M Tris, 1.5M NaCl, 0.01% Tween) solution and incubated overnight at 4° C. with primary antibodies. Secondary antibodies were incubated 1 hr at RT. The following antibodies were used: anti-collagen-II al (1:1000, Abcam), anti-aggrecan (1:1000, Abcam), anti-MMP-3 (1:1000, Abcam), anti-MMP-13 (1:1000, Abcam). […] Then the content collagen-IIα1, aggrecan, MMP3 and MMP13 were quantified with densitometry and normalized on the content of GAPDH (detected with anti-GAPDH, 1:5000, Cell Signaling)

SW1353 cells [2] = assay: Mitochondrial membrane potential (JC-10 ratio fluorescence 590/525 nm) in SW1353 cells; conditions: after 24 h of IL-1β vs control
Description: To measure mitochondrial membrane potential, SW1353 cells were seeded in 96-well plates at a density of 8000 cells per well in Growth medium (DMEM high glucose, Gibco) with 10% fetal calf serum. Then, cells were loaded with the fluorescent mitochondrial membrane potential sensor JC-10. Fluorescence was acquired with MetaXpress Confocal (Molecular Devices) at following emission wavelengths: 590 nm (excitation at 540 nm) and 525 nm (excitation 490 nm), according to supplier's instructions. The ratio fluorescence at 590 nm/525 nm is proportional to change in the mitochondrial membrane potential.

SW1353 cells [3] = assay: Cell death, Annexin-V positive cells (IncuCyte) in SW1353 cells; conditions: after 5 days of IL-1β treatment vs control
Description: To quantify the effect of Interleukin-1β on cell death in SW1353 cells, kinetic experiments of apoptosis were performed with the IncuCyte ZOOM instrument (Essen Bioscience, Ann Arbor, MI, USA). Cells were seeded at 50% confluence in 96-well-plate format in DMEM medium. After 24 h, cells were incubated with IncuCyte Annexin-V Green (4642), according to supplier's instructions and treated with IL-1β. Four images per well were collected at the indicated time using a 10× objective and bandwidth filters (Ex: 440/80 nm; Em: 504/44 nm). Data were exported as area (μm2) per well covered by Annexin-V positive objects and normalized for the total area covered by the cells.

SW1353 cells [4] = assay: Mitochondrial calcium rise in SW1353 chondrocytes, IL-1β osteoarthritic model (mitochondrial aequorin); conditions: SW1353 cells treated with IL-1β vs control
Description: To test the effect of oleuropein (or oleuropein aglycone), quercetin and their combination in living cells, the inventors measured mitochondrial calcium elevation in HeLa cells. HeLa cells were purchased from ATCC. HeLa cells were seeded in 96-well plates at a density of 50000 cells per well in minimal essential medium (DMEM, Gibco), high glucose, +10% fetal calf serum. Mitochondrial calcium measurements were carried out using Hela cells infected with the adenovirus (from Sirion biotech) expressing the mitochondrially targeted calcium sensor mitochondrial mutated aequorin (Montero et al., 2004). […] Luminescence was measured at the FLIPR Tetra Aequorin (Molecular Devices). […] Calibration of the luminescence data into calcium concentration was carried out using an algorithm, as described previously (Alvarez & Montero, 2002). Custom module analysis based on Excel (Microsoft) and GraphPad Prism 7.02 (Graph Pad) software was used for quantification.
To validate the effect of the pro-inflammatory cytokine Interleukin-1β as an osteoarthritis-mimetic in a chondrocyte cellular model and to test the effect of the mitochondrial calcium uniporter (MCU) ablation on chondrocyte function, the inventors measured chondrocyte function and mitochondrial function in SW1353 cells. […]

IL-1β: pro-inflammatory cytokine Interleukin-1β used as an osteoarthritis-mimetic in SW1353 chondrocytes
collagen-IIα1 content (SW1353 cells [1]): strongly decreased
expression of MMP3 (SW1353 cells [1]): increased
expression of MMP13 (SW1353 cells [1]): increased
ratio fluorescence (590/525 nm) of mitochondrial membrane potential sensor JC10 (SW1353 cells [2]): significantly decreases
Annexin-V positive cells (cell death) (SW1353 cells [3]): significantly increased
mitochondrial Ca2+ rise stimulated by agonist (histamine) (SW1353 cells [4]): decrease
